According to article PMC5904360, “Soluble N-Ethylmaleimide-Sensitive Factor Attachment Protein Receptor-Derived Peptides for Regulation of Mast Cell Degranulation” (Frontiers in Immunology, 2018):

Tested on: NC/Nga mice
Assay: DNCB-induced atopic dermatitis-like skin lesions
Type: in vivo, mouse
From the text: Seven-week-old NC/Nga mice were purchased from the Shizuoka Laboratory Animal Center (Shizuoka, Japan) and allowed to adapt to the environment for a week prior to use. The procedures for the induction of atopic dermatitis-like symptoms in mice using 1-chloro-2,4-dinitro-benzene (DNCB) have been well described previously ([27]). Briefly, the dorsal hair of the mice was shaved 2 days before DNCB administration. For the induction of atopic dermatitis, 1% DNCB was applied to the dorsal skin of the mice twice weekly for 7 days and then 0.2% DNCB was applied thrice weekly for 21 days. The mice were divided into the following […] treatment groups (n = 10 per group): 0.3 and 3% Vp2N/day, 0.3 and 3% Vp8N/day, 0.1% dexamethasone/day, and vehicle only, dorsally administered from 9 to 13 weeks of age. As a negative control for atopic dermatitis, NC/Nga mice that were not treated with DNCB were maintained under pathogen-free conditions. Laboratory animal breeding management was based on the “Guide for the Care and Use of Laboratory Animals,” and all experiments were approved by the Institutional Animal Care and Use Committees of Gyeonggi Institute of Science & Technology.

Sequence: LQSEVEGVKNIMTQNVE [Vp8N, 17-mer peptide, N-terminal region of VAMP8 SNARE motif]
- epidermal thickness (0.3 and 3% peptide/day dorsally for 4 weeks, n = 10 per group, versus DNCB/vehicle-treated group (Figure 5C)): significantly reduced
- atopic dermatitis features (acanthosis, hypergranulosis, hyperkeratosis) in hematoxylin and eosin-stained sections (0.3 and 3% peptide/day dorsally, 9 to 13 weeks of age, n = 10 per group, compared with 0.1% dexamethasone/day group (Figure 5B)): clearly alleviated to a similar extent
- ear thickness (0.3 and 3% peptide/day or 0.1% dexamethasone/day for 4 weeks, n = 10 per group (Figure 5D)): reduced
- serum IgE levels (daily dorsal application for 4 weeks, n = 10 per group (Figure 5F)): significantly reduced
